# Source: patent publication US12679839B2, “Cyclin-dependent kinase 7 (CDK7) non-covalent inhibitors” (JANSSEN PHARMACEUTICA NV, priority 2020, dated 2026)
# Target: T1, CDK7/Cyclin H/MAT-1 complex (Homo sapiens, UniProt P50613)
# T1 construct: Human CDK7 (amino acids 1-346); His6 (N); TEV protease cleavage site (N); made in house; host or cells: baculovirus-SF9 insect cells
# Test: Absorbance kinetic assay (20 nM CDK7/Cyclin H/MAT-1 complex)
# Type: biochemical
# Conditions: not given
# Method in brief: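 Trimeric complex (His6-TEV CDK7 1-346, MAT1 1-309, cyclin H 1-323) from Sf9 cells, at 20 nM, phosphorylating RNA Pol II-derived CDK7/9-tide; ADP coupled via PK/LDH to NADH depletion read at 340 nm every 2 min for 8 h. Steady-state slopes gave % inhibition; IC50 from 11-point Hill fit.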
# T1 sequence (P50613 whole entry, the tested form may be a part): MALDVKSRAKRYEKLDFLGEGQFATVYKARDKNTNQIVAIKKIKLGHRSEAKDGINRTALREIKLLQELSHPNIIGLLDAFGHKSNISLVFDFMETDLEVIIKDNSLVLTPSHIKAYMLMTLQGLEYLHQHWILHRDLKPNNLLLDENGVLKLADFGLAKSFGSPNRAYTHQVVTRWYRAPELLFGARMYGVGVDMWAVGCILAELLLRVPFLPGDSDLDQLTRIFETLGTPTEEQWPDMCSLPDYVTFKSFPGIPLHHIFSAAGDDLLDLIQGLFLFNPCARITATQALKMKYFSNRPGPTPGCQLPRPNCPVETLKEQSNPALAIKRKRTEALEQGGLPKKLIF
# T1 sequence (P51946 whole entry partner, the tested form may be a part): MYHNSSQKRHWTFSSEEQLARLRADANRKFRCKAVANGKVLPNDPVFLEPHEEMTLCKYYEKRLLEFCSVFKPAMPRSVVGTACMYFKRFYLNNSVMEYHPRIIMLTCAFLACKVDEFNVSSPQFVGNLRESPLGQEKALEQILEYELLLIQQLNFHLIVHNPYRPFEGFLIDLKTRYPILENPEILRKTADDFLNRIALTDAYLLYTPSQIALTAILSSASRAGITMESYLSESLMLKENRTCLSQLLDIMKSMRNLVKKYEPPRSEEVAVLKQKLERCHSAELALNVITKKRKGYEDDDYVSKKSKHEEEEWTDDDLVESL
# T1 sequence (P51948 whole entry partner, the tested form may be a part): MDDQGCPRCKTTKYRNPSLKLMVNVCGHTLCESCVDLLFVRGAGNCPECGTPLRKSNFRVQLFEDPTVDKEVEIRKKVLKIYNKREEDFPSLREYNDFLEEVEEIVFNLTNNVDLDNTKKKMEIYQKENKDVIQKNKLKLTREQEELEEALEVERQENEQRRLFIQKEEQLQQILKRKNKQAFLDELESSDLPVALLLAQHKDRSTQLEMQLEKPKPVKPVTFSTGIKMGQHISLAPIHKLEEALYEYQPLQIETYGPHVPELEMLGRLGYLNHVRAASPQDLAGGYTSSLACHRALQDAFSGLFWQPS
row,SMILES,CDK7 (20 nM) pIC50
1,Cc1cccc([C@H]2CN(C)CC[C@@H]2C(=O)N2Cc3nc(NC4CCOCC4)ncc3C[C@H]2C)c1 [Compound 93],>8.01
2,C[C@@H]1Cc2cnc(NC3CCOCC3)nc2CN1C(=O)[C@H]1CCN(C)C[C@@H]1c1ccc(Cl)c(F)c1 [Compound 122b],7.15
3,Cc1cccc([C@H]2CN(C(C)C)CC[C@@H]2C(=O)N2Cc3nc(NC4CCOCC4)ncc3C[C@H]2C)c1 [Compound 166],7.74
4,C[C@@H]1c2nc(NC3CCOCC3)ncc2[C@@H](C)CN1C(=O)[C@H]1CCN(C)C[C@@H]1c1ccccc1 [Compound 180a],>8.01
5,CO[C@H]1CC[C@H](Nc2ncc3c(n2)CN(C(=O)[C@H]2CCN(C)C[C@@H]2c2ccccc2)C2(CC2)C3)CC1 [Compound 192],6.80
6,CN1CC[C@H](C(=O)N2Cc3nc(NC4CCOCC4)ncc3C(C)(C)C2)[C@@H](c2ccccc2)C1 [Compound 193],6.75
7,C[C@@H]1Cc2cnc(NC3CCOCC3)nc2CN1C(=O)N1CCN(C)C[C@@H]1c1ccccc1 [Compound 204a],7.81
8,CC(C)N1CCN(C(=O)N2Cc3nc(NC4CCOCC4)ncc3C[C@H]2C)[C@@H](c2ccccc2)C1 [Compound 206],7.79
9,C[C@@H]1Cc2cnc(NC3CCN(S(C)(=O)=O)CC3)nc2CN1C(=O)N1CCN(C)C[C@@H]1c1ccccc1 [Compound 209],7.77
10,C[C@@H]1Cc2cnc(NC3CCN(S(=O)(=O)C4CC4)CC3)nc2CN1C(=O)N1CCN(C)C[C@@H]1c1ccccc1 [Compound 210],>7.7
11,C[C@@H]1Cc2cnc(NC3CCN(S(=O)(=O)N(C)C)CC3)nc2CN1C(=O)N1CCN(C)C[C@@H]1c1ccccc1 [Compound 211],>7.7
12,C[C@@H]1Cc2cnc(NCc3ccn(C)n3)nc2CN1C(=O)N1CCN(C)C[C@@H]1c1ccccc1 [Compound 213],6.8
13,C[C@@H]1Cc2cnc(NC3CCS(=O)(=O)CC3)nc2CN1C(=O)N1CCN(C)C[C@@H]1c1ccccc1 [Compound 214],7.55

# The next lines start with the values.
row,CDK7 (20 nM) pIC50,SMILES
1,>7.7,C[C@@H]1Cc2cnc(NC3CCOCC3)nc2CN1C(=O)[C@H]1CCN(C)C[C@@H]1c1ccccc1 [Compound 47]
2,7.37,C[C@@H]1Cc2cnc(Nc3ccnn3C)nc2CN1C(=O)[C@H]1CCN(C)C[C@@H]1c1ccccc1 [Compound 79]
3,>8.01,C[C@@H]1Cc2cnc(Nc3cnn(C)c3)nc2CN1C(=O)[C@H]1CCN(C)C[C@@H]1c1ccccc1 [Compound 82]
4,6.1,CC(C)n1cc(Nc2ncc3c(n2)CN(C(=O)[C@H]2CCN(C)C[C@@H]2c2ccccc2)[C@H](C)C3)cn1 [Compound 89]
5,7.43,C[C@@H]1Cc2cnc(NC(C)(C)c3cnn(C)c3)nc2CN1C(=O)[C@H]1CCN(C)C[C@@H]1c1ccccc1 [Compound 90]
6,>8.01,CN1CC[C@H](C(=O)N2Cc3nc(NC4CCOCC4)ncc3[C@@H]3C[C@@H]32)[C@@H](c2ccccc2)C1 [Compound 199]
7,7.46,CN1CC[C@H](C(=O)N2Cc3nc(Nc4cnn(C)c4)ncc3[C@@H]3C[C@@H]32)[C@@H](c2ccccc2)C1 [Compound 200]
8,7.48,CO[C@H]1CC[C@H](Nc2ncc3c(n2)CN(C(=O)[C@H]2CCN(C)C[C@@H]2c2ccccc2)[C@H]2C[C@@H]32)CC1 [Compound 201]

# Same assay, conditions: read-out: CDK7 (20 nM) pIC50 (converted)
row,SMILES,IC50 [nM]
1,CO[C@H]1CC[C@H](Nc2cc3c(cn2)C[C@H](C)N(C(=O)[C@@H]2CCN(C)C[C@H]2c2cccc(C)c2)C3)CC1 [Compound 177a],28.8
2,CO[C@H]1CC[C@H](Nc2cc3c(cn2)C[C@H](C)N(C(=O)[C@H]2CCN(C)C[C@@H]2c2cccc(C)c2)C3)CC1 [Compound 177c],389

# Tested on: not given
# Test: not given
# Conditions: not given
row,SMILES,melting point [°C]
1,C[C@@H]1Cc2cnc(NC3CCOCC3)nc2CN1C(=O)[C@H]1CCN(C)C[C@@H]1c1ccccc1 [Compound 47],162.7
